Measured values from patent US20240132467A1, “BENZIMIDAZOLE DERIVATIVES FOR TREATING RESPIRATORY DISEASE” (TMEM16A Limited, priority 2020, published 2024).

Target: T1, human TMEM16A (TMEM16Aabc variant) (Homo sapiens, UniProt Q5XXA6, DEL476-501)
T1 sequence (Q5XXA6 with tags, fused parts or gaps isoform Q5XXA6-5 DEL539-564): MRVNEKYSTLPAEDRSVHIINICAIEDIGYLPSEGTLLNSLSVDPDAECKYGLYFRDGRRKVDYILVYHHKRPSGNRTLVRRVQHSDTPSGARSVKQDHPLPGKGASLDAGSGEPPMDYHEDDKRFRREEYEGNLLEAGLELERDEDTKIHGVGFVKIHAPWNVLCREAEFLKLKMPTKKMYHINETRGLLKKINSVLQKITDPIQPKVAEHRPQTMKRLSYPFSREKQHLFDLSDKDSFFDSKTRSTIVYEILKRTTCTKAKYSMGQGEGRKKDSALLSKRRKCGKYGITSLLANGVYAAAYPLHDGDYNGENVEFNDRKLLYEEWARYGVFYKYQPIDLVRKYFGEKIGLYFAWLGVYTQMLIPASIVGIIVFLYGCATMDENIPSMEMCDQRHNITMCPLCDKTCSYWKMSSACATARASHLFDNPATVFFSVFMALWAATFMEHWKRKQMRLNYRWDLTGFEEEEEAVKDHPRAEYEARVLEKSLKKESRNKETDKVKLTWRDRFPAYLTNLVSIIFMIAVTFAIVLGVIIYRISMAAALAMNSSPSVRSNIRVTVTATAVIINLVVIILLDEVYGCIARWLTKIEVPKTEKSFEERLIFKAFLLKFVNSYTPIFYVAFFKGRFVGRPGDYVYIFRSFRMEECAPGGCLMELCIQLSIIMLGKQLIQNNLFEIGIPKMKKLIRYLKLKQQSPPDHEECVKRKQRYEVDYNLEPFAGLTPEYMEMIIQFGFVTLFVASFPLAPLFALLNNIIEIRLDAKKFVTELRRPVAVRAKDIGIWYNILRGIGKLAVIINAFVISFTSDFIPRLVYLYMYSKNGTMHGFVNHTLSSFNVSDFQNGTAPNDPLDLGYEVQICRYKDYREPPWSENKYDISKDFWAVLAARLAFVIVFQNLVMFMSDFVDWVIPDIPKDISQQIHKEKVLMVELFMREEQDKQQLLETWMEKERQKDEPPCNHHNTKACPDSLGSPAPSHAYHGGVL
Experiment: Automated whole-cell patch clamp (Qpatch) TMEM16A potentiator assay in FRT cells stably expressing human TMEM16A
Assay type: cell-based
Details: for activation at 3.33 µM: 3.33 μM test compound, percentage increase of baseline TMEM16A current at +70 mV, intracellular calcium at EC20, read-out: % Potentiation @ 3.33 μM Avg; for EC50: cumulative concentration response, 5 min per concentration, whole-cell patch clamp
Experimental: Automated whole-cell patch clamp assay to detect TMEM16A activity in recombinant cells Cell culture and preparation
Fisher rat thyroid (FRT) cells stably expressing human TMEM16A (TMEM16Aabc variant; Dr Luis Galietta, Insituto Giannina, Italy) were cultured in T-75 flasks in Hams F-12 media with Coon's modification (Sigma) supplemented with 10% (v/v) foetal bovine serum, penicillin-streptomycin (10,000 U/mL/10000 μg/mL), G-418 (750μg/mL), L-glutamine (2 mM) and sodium bicarbonate solution (7.5% v/v). At —90% confluence cells were harvested for experiments by detachment with a 2:1 (v/v) mixture of Detachin (BMS Biotechnology) and 0.25% (w/v) trypsin-EDTA. Cells were diluted to a density of 3.5-4.5×10^6 cells/mL with media consisting of CHO-S-SFM II (Sigma), 25 mM HEPES (Sigma) and Soy bean trypsin inhibitor (Sigma).
Whole-Cell Patch Clamp Recording
FRT-TMEM16A cells were whole-cell patch clamped using an automated planar patch clamp system (Qpatch, Sophion). Briefly, once high resistance (GOhm) seals were established between the cells and the planar recording array the patch was ruptured using suction pulses to establish the whole-cell recording configuration of the patch clamp technique. The assay employed the following solutions (all reagents Sigma):
Intracellular solution (mM): N-methyl-D-glucamine 130, CaCl2 18.2, MgCl2 1, HEPES 10, EGTA 10, BAPTA 20, Mg-ATP 2, pH 7.25, 325mOsm with sucrose.
Extracellular solution (mM): N-methyl-D-glucamine 130, CaCl2 2, MgCl2 1, HEPES 10, pH 7.3, 320 mOsm with sucrose.
The intracellular solution buffers intracellular calcium at levels required to give —20% activation of the maximal TMEM16A mediated current (EC20 for calcium ions). Cells were voltage clamped at a holding potential of -70mV and a combined voltage step (to +70 mV)/ramp (−90 my to +90 mV) was applied at 0.05 Hz. After a period of current stabilisation test compounds, solubilised in 100% (v/v) DMSO and subsequently diluted into extracellular solution, were applied to generate a cumulative concentration response curve. Each concentration of test compound was incubated for 5 minutes before addition of the next concentration. After the final concentration was tested a supramaximal concentration of either a known active positive modulator or the TMEM16A inhibitor, CaCCinhA01 (Del La Fuente et al, 2008) was added to define the upper and lower limits of the assay.
Compound activity was quantified by measuring the increase in current upon compound addition and expressing this as a percentage increase of baseline TMEM16A current level. Percentage increases in current were determined for each concentration and the data plotted as a function of concentration using either the Qpatch software or Graphpad Prism v6.05 providing the concentration which gave 50% of its maximal effect (EC50) and maximum efficacy (percentage of baseline increase).
In FIG. 1, IBL equals baseline current, km equals the peak current during test compound concentration 1 incubation period and so on.
Peak TMEM16A current at +70mV was plotted as a function of time over the assay period. Baseline current (IBL) was measured after a period of stabilisation. The increase in current for each compound addition was determined by taking the peak current during the incubation period and subtracting the current from the previous recording period and then expressing this as a percentage of the baseline current. For test compound concentration 1 in FIG. 1 this is:
For each additional concentration tested the increase in current was determined by subtracting the current from the previous incubation period and normalising the baseline value—for test concentration 2 in FIG. 1 this is:
The values for each test concentration were plotted as a cumulative function of concentration e.g. for test concentration two this would be the sum of the peak changes measured during concentration one plus concentration two.

Row | activation at 3.33 µM [%] | EC50 [nM] | SMILES
1 | 124 | 210 | CC1(CNC(=O)c2ccc3[nH]c(Cc4ccccc4)nc3c2)CCCCC1 [Example 1.10.1, 2-Benzyl-N-1(1-methylcyclohexyl)methylj-1H-benzimidazole-5-carboxamide]
2 | 76.1 | 192 | O=C(NCC1CCCCCCC1)c1ccc2[nH]c(Cc3ccccc3)nc2c1 [Example 1.10.2, 2-Benzyl-N-(cyclooctylmethyl)-1H-benzimidazole-5-carboxamide]
3 | 215 | 860 | CC(C)(C)OC(=O)NCC1(CC(=O)Nc2ccc3[nH]c(Cc4ccccc4)nc3c2)CCCCC1 [Example 2.1, tert-Butyl N-[[1-[2-[(2-benzyl-1H-benzimidazol-5-yl)amino]-2-oxo-ethyl]cyclohexyl]methyl]carbamate]
4 | 47.6 | 582 | O=C(CC1CCC(F)(F)CC1)Nc1ccc2[nH]c(Cc3ccccc3)nc2c1 [Example 2.1.1]
5 | 197 | 622 | COCC(NC(=O)OC(C)(C)C)c1nc2cc(NC(=O)CC3C4CC5CC(C4)CC3C5)ccc2[nH]1 (stereo not shown) [Example 2.2, tert-Butyl N-[1-[5-[[2-(2-adamantyl)acetyl]amino]-1H-benzimidazol-2-yl]-2-methoxy-ethyl]carbamate]
6 | 97.7 | 907 | CN(C(=O)OC(C)(C)C)[C@H](c1ccccc1)c1nc2cc(NC(=O)CC3C4CC5CC(C4)CC3C5)ccc2[nH]1 (stereo partly shown) [Example 2.2.1]
7 | 127 | 948 | CN(C(=O)OC(C)(C)C)[C@@H](c1ccccc1)c1nc2cc(NC(=O)CC3C4CC5CC(C4)CC3C5)ccc2[nH]1 (stereo partly shown) [Example 2.2.2]
8 | 155 | 1040 | CCN(Cc1nc2ccc(NC(=O)CC3C4CC5CC(C4)CC3C5)cc2[nH]1)C(=O)OC(C)(C)C (stereo not shown) [Example 2.2.3]
9 | 190 | 1080 | COCCN(Cc1nc2ccc(NC(=O)CC3C4CC5CC(C4)CC3C5)cc2[nH]1)C(=O)OC(C)(C)C (stereo not shown) [Example 2.2.4]
10 | 113 | 758 | COCCc1nc2ccc(NC(=O)CC3C4CC5CC(C4)CC3C5)cc2[nH]1 (stereo not shown) [Example 2.2.5, 2-(2-Adamantyl)-N[2-(2-methoxyethyl)-3H-benzimidazol-5-yl]acetamide]
11 | 167 | 780 | COCCCc1nc2cc(NC(=O)CC3C4CC5CC(C4)CC3C5)ccc2[nH]1 (stereo not shown) [Example 2.2.6, 2-(2-Adamantyl)-N[2-(3-methoxypropyl)-1H-benzimidazol-5-yl]acetamide]
12 | 201 | 1070 | CN(Cc1nc2cc(NC(=O)CC3C4CC5CC(C4)CC3C5)ccc2[nH]1)C(=O)OC(C)(C)C (stereo not shown) [Example 2.3, tert-Butyl N-[[5-[[2-(2-adamanty)acetyl]amino]-1H-benzimidazol-2-yl]methyl]-N-methyl-carbamate]
13 | 133 | 658 | O=C(NCC1CCCCCC1)c1ccc2[nH]c(C3COc4ccccc43)nc2c1 (stereo not shown) [Example 2.4, N-(Cycloheptylmethyl)-2-(2,3-dihydrobenzofuran-3-yl)-1H-benzimidazole-5-carboxamide]
14 | 58.9 | 150 | O=C(CC1C2CC3CC(C2)CC1C3)Nc1ccc2[nH]c(C(O)c3ccccc3)nc2c1 (stereo not shown) [Example 2.5, 2-(2-Adamantyl)-N-12-[hydroxy(phenyl)methyl]-1H-benzimidazol-5-yljacetamide]
15 | 74 | 287 | O=C(CC1CCCCC1)Nc1ccc2[nH]c(-c3ccccc3)nc2c1 [Example 3.1, 2-Cyclohexyl-N-(2-phenyl-1H-benzimidazol-5-yl)acetamide]
16 | 58.5 | 332 | O=C(Nc1ccc2[nH]c(Cc3ccccc3)nc2c1)C12CC3CC(CC(C3)C1)C2 [Example 3.2, N-(2-Benzyl-1H-benzimidazol-5-yl)adamantane-1-carboxamide]
17 | 114 | 554 | O=C(NCC1CCCCCC1)c1cc(F)c2[nH]c(Cc3cccc(O)c3)nc2c1 [Example 3.3, N-(Cycloheptylmethyl)-7-fluoro-2-[(3-hydroxyphenyl)methyl]-1H-benzimidazole-5-carboxamide]
18 | 95.8 | 471 | O=C(NCC1CCCCCC1)c1cc2nc(Cc3cccc(O)c3)[nH]c2cc1F [Example 3.3.1, N-(Cycloheptylmethyl)-6-fluoro-2-[(3-hydroxyphenyl)methyl]-1H-benzimidazole-5-carboxamide]
19 | 90.2 | 598 | O=C(NCC1CCCCCC1)c1ccc2[nH]c(Cc3cccc(O)c3)nc2c1F [Example 3.3.2, N-(Cycloheptylmethyl)-4-fluoro-2-[(3-hydroxyphenyl)methyl]-1H-benzimidazole-5-carboxamide]
20 | 116 | 576 | Cc1noc(C)c1Cc1nc2cc(NC(=O)CC3C4CC5CC(C4)CC3C5)ccc2[nH]1 (stereo not shown) [Example 3.4.1]
21 | 99.8 | 471 | CC(C)(C)OC(=O)NCCc1nc2cc(NC(=O)CC3C4CC5CC(C4)CC3C5)ccc2[nH]1 (stereo not shown) [Example 3.4]
22 | 144 | 1020 | CC(C)(C)CNC(=O)c1ccc2[nH]c(Cc3ccccc3)nc2c1 [Example 3.5, 2-Benzyl-N-(2,2-dimethylpropyl)-1H-benzimidazole-5-carboxamide]
23 | 89.5 | 779 | CC(C)(C)C(C)(C)NC(=O)c1ccc2[nH]c(Cc3ccccc3)nc2c1 [Example 3.5.1, 2-Benzyl-N-(1,1,2,2-tetramethylpropyl)-1H-benzimidazole-5-carboxamide]
